Measured values published in the NIST ThermoML archive (doi:10.1021/acs.jced.5b00105).

Assay: xn = mol fraction of the nth substance listed
Conditions: for surface tension liquid-gas: Drop volume; for viscosity / mass density: 100 kPa, Liquid; for viscosity: Concentric cylinders viscometry; for mass density: Vibrating tube method

CC1CCCCC1 [methylcyclohexane] + CC(C)CC(C)(C)C
Conditions	mass density [kg/m3]	surface tension liquid-gas [mN/m]	viscosity [mPa·s]
293.15 K, x1 = 0.0999	–	19.34	–
293.15 K, x1 = 0.1012	698.32	–	0.532
293.15 K, x1 = 0.1999	–	19.77	–
293.15 K, x1 = 0.2003	704.87	–	0.546
293.15 K, x1 = 0.2997	–	20.13	–
293.15 K, x1 = 0.3001	711.73	–	0.562
293.15 K, x1 = 0.4	–	20.54	–
293.15 K, x1 = 0.4019	719.01	–	0.58
293.15 K, x1 = 0.5	–	20.99	–
293.15 K, x1 = 0.5008	726.4	–	0.599
293.15 K, x1 = 0.6	734.15	21.52	0.62
293.15 K, x1 = 0.6998	742.32	–	0.644
293.15 K, x1 = 0.7001	–	22.1	–
293.15 K, x1 = 0.7999	–	22.64	–
293.15 K, x1 = 0.8	750.91	–	0.671
293.15 K, x1 = 0.9	759.88	23.29	0.701
293.15 K, x1 = 1	769.35	23.87	0.735
298.15 K, x1 = 0.0999	–	18.75	–
298.15 K, x1 = 0.1012	694.22	–	0.506
298.15 K, x1 = 0.1999	–	19.1	–
298.15 K, x1 = 0.2003	700.73	–	0.519
298.15 K, x1 = 0.2997	–	19.44	–
298.15 K, x1 = 0.3001	707.58	–	0.533
298.15 K, x1 = 0.4	–	19.84	–
298.15 K, x1 = 0.4019	714.85	–	0.549
298.15 K, x1 = 0.5	–	20.2	–
298.15 K, x1 = 0.5008	722.23	–	0.566
298.15 K, x1 = 0.6	729.96	20.69	0.585
298.15 K, x1 = 0.6998	738.11	–	0.606
298.15 K, x1 = 0.7001	–	21.26	–
298.15 K, x1 = 0.7999	–	21.81	–
298.15 K, x1 = 0.8	746.67	–	0.631
298.15 K, x1 = 0.9	755.61	22.41	0.66
298.15 K, x1 = 1	765.05	23.02	0.692
303.15 K, x1 = 0.0999	–	18.32	–
303.15 K, x1 = 0.1012	690.06	–	0.482
303.15 K, x1 = 0.1999	–	18.62	–
303.15 K, x1 = 0.2003	696.57	–	0.494
303.15 K, x1 = 0.2997	–	18.99	–
303.15 K, x1 = 0.3001	703.4	–	0.507
303.15 K, x1 = 0.4	–	19.38	–
303.15 K, x1 = 0.4019	710.66	–	0.521
303.15 K, x1 = 0.5	–	19.73	–
303.15 K, x1 = 0.5008	718.01	–	0.537
303.15 K, x1 = 0.6	725.72	20.21	0.554
303.15 K, x1 = 0.6998	733.85	–	0.573
303.15 K, x1 = 0.7001	–	20.72	–
303.15 K, x1 = 0.7999	–	21.32	–
303.15 K, x1 = 0.8	742.38	–	0.595
303.15 K, x1 = 0.9	751.3	21.92	0.621
303.15 K, x1 = 1	760.71	22.55	0.651
308.15 K, x1 = 0.0999	–	17.84	–
308.15 K, x1 = 0.1012	685.89	–	0.46
308.15 K, x1 = 0.1999	–	18.12	–
308.15 K, x1 = 0.2003	692.38	–	0.471
308.15 K, x1 = 0.2997	–	18.43	–
308.15 K, x1 = 0.3001	699.2	–	0.483
308.15 K, x1 = 0.4	–	18.8	–
308.15 K, x1 = 0.4019	706.44	–	0.496
308.15 K, x1 = 0.5	–	19.19	–
308.15 K, x1 = 0.5008	713.78	–	0.51
308.15 K, x1 = 0.6	721.47	19.64	0.525
308.15 K, x1 = 0.6998	729.57	–	0.543
308.15 K, x1 = 0.7001	–	20.23	–
308.15 K, x1 = 0.7999	–	20.75	–
308.15 K, x1 = 0.8	738.08	–	0.564
308.15 K, x1 = 0.9	746.98	21.44	0.587
308.15 K, x1 = 1	756.37	22.12	0.615
313.15 K, x1 = 0.1012	681.69	–	0.44
313.15 K, x1 = 0.2003	688.17	–	0.45
313.15 K, x1 = 0.3001	694.97	–	0.461
313.15 K, x1 = 0.4019	702.2	–	0.473
313.15 K, x1 = 0.5008	709.52	–	0.486
313.15 K, x1 = 0.6	717.19	–	0.5
313.15 K, x1 = 0.6998	725.27	–	0.516
313.15 K, x1 = 0.8	733.75	–	0.535
313.15 K, x1 = 0.9	742.63	–	0.556
313.15 K, x1 = 1	752	–	0.58
318.15 K, x1 = 0.1012	677.34	–	0.422
318.15 K, x1 = 0.2003	683.85	–	0.432
318.15 K, x1 = 0.3001	690.64	–	0.443
318.15 K, x1 = 0.4019	697.75	–	0.453
318.15 K, x1 = 0.5008	705.13	–	0.465
318.15 K, x1 = 0.6	712.85	–	0.478
318.15 K, x1 = 0.6998	720.93	–	0.493
318.15 K, x1 = 0.8	729.36	–	0.509
318.15 K, x1 = 0.9	738.24	–	0.528
318.15 K, x1 = 1	747.58	–	0.549
323.15 K, x1 = 0.1012	673.08	–	0.406
323.15 K, x1 = 0.2003	679.58	–	0.415
323.15 K, x1 = 0.3001	686.35	–	0.426
323.15 K, x1 = 0.4019	693.44	–	0.435
323.15 K, x1 = 0.5008	700.81	–	0.446
323.15 K, x1 = 0.6	708.52	–	0.458
323.15 K, x1 = 0.6998	716.59	–	0.471
323.15 K, x1 = 0.8	725.08	–	0.486
323.15 K, x1 = 0.9	733.86	–	0.503
323.15 K, x1 = 1	743.17	–	0.522
333.15 K, x1 = 0.1012	664.46	–	0.378
333.15 K, x1 = 0.2003	670.92	–	0.386
333.15 K, x1 = 0.3001	677.66	–	0.395
333.15 K, x1 = 0.4019	684.72	–	0.402
333.15 K, x1 = 0.5008	692.07	–	0.411
333.15 K, x1 = 0.6	699.74	–	0.421
333.15 K, x1 = 0.6998	707.79	–	0.433
333.15 K, x1 = 0.8	716.25	–	0.445
333.15 K, x1 = 0.9	725.03	–	0.46
333.15 K, x1 = 1	734.29	–	0.476
343.15 K, x1 = 0.1012	655.69	–	0.355
343.15 K, x1 = 0.2003	662.12	–	0.361
343.15 K, x1 = 0.3001	668.84	–	0.368
343.15 K, x1 = 0.4019	675.87	–	0.375
343.15 K, x1 = 0.5008	683.23	–	0.383
343.15 K, x1 = 0.6	690.9	–	0.391
343.15 K, x1 = 0.6998	698.9	–	0.401
343.15 K, x1 = 0.8	707.33	–	0.411
343.15 K, x1 = 0.9	716.08	–	0.424
343.15 K, x1 = 1	725.31	–	0.439
